Measured values as given in US7179943B2, “Bicyclic derivatives that modulate voltage-gated potassium channels and methods of use thereof” (Wyeth, priority 2004, dated 2007).

Assays:
mouse Elevated Zero Maze = test: Anxiolytic activity: mouse Elevated Zero Maze model; format: in vivo; settings: 30 min prior to testing, mice; for % Total Distance Traveled (Relative to Control): 3 mg/kg ip.
Experimental: Anxiolytic activity of the compounds of formula I was determined using the mouse Elevated Zero Maze model, originally described by Shepherd, et al. (Psychopharmocol. (1994) 116:56–64), incorporated herein by reference in its entirety. Anxiolytic efficacy was measured as the ability of the test compound to increase the amount of time that the mice spent in the open zones of the maze. To account for the possibility of false positive results due to increased locomotor activity, total distance traveled during the course of the experiment was also monitored.
The zero maze, constructed of black Perspex, consisted of a circle (outer diameter approximately 60 cm, width 5 cm) that was elevated 55 cm above the floor. The zero maze was divided into 4 equal quadrants, alternating between open and closed. […] Animals were tested under low levels of illumination in the presence of red light. Test animals (male CN57BI/n mice) were group housed with ad lib access to food and water. On the day of testing, animals were brought into the behavioral testing room and allowed to habituate for a period of not less than one-half hour. Test compounds were administered at the appropriate dose ip. 30 min prior to testing on the zero maze. Control animals were administered the test vehicle. Animals were placed on the zero maze with their head and forepaws contained within a closed quadrant. The animals' behavior was then recorded for 4 minutes and the distance traveled, the amount of time spent in, and number of entries into, each quadrant was noted. Behavior was monitored utilizing an automated video tracking system. Results for the test compounds are presented here as the percentage relative to that obtained with the control animals.

[1] = biological target: T1, human Kv1.1/Kvβ1 potassium ion channel complex (Homo sapiens, UniProt Q09470); test: Xenopus oocytes current assay (inhibition of inactivation, voltage clamp); format: cell-based; settings: Xenopus oocytes expressing hKv1.1/hKvβ1, relative to control bath solution, read-out: Percent Increase in Steady State Current Of human Kv1.1/Kvβ1 @ a concentration of 50 μM
T1 construct: expressed in transfected cells; host or cells: Xenopus oocytes injected with cRNA
T1 sequence (Q09470 whole entry, one chain of several): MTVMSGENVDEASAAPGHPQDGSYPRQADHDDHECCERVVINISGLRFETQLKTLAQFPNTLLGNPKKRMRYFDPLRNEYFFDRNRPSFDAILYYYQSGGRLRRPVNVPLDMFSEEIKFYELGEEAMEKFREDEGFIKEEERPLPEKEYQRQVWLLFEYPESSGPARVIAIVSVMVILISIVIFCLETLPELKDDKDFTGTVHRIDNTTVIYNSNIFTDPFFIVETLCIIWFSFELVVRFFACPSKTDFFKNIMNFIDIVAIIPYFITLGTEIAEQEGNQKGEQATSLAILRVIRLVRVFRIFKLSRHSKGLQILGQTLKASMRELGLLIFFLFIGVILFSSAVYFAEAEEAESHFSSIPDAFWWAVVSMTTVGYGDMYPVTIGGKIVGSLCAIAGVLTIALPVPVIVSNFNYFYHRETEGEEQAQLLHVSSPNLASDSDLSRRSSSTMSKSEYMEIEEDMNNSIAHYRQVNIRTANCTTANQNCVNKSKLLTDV
Experimental: The compounds of formula I were examined for their ability to inhibit the inactivation of the human Kv1.1/Kvβ1 potassium ion channel complex in vitro using electrophysiological current recordings on inactivating Kv1.1/Kvβ1 channels expressed in Xenopus oocytes. Xenopus oocytes were harvested from frogs under general anesthesia using aseptic techniques. Oocytes were treated with 2 mg/ml collagenase for 1–1.5 hr, defolliculated, and injected with 40 nL cRNA (a mixture of hky1.1 and hKvβ1) produced using standard molecular biological techniques (Sambrook, et al., 1989, Molecular Cloning: A Laboratory Manual). The concentration of hKv1.1/hKvp1 cRNA varies, but was generally about 50 ng/μL hKv1.1 and […] hKβ1.
Currents were recorded using standard voltage clamp amplifiers at room temperature. Recordings were performed in the bath solution “ND-96” containing 96 mM NaCl, 2 mM KCl, 1 mm CaCl2, 1 mM MgCl2, 10 mM HEPES and […] Gentamycin (pH=7.6). The pipette (electrode) solution generally consisted of […]. Electrodes were made from WPI TW150F-4 borosilicate glass (or equivalent) and typically had resistances of 0.5–1.5 Mohms. The standard current-voltage (IV) pulse protocol consisted of voltage steps from −60 mV to +50 mV, in 10 mV increments for 200 ms, at a frequency of one IV set per 2 minutes. Data were digitized and analyzed by standard software packages.
Solutions of the test compounds consisting of test compounds dissolved in bath solution were applied by bath perfusion using gravity or pump-driven flow. A minimum of 2 mL (10 times the bath volume) over 3 minutes were flowed for each compound concentration tested. Data were averaged across at least 3 cells tested for each concentration.
Test compounds were examined for their ability to inhibit the inactivation of the steady state portion of the IV curve.

In the case of `CN1C(=O)CN=C(c2ccccc2)c2cc(Cl)ccc21` [Diazepam, reference compound], the “% Total Distance Traveled (Relative to Control)” value (mouse Elevated Zero Maze) is reported as 75% and the “% Total Distance Traveled (Relative to Control)” value (mouse Elevated Zero Maze; listed as diazepam) is reported as “small decrease”.
In the case of `CC1(C)C2CC[C@]1(C)C(=O)C(C(=O)Nc1cccc(C(F)(F)F)c1)C2=O` (stereo partly drawn) [Example 2, (1S)-N-[3-(trifluoromethyl)phenyl]-1,8,8-trimethyl-2,4-dioxobicyclo[3.2.1] octane-3-carboxamide], the melting point is reported as 60 to 62 °C, the activation at 50 µM [1] is reported as 22% and the “% Time Spent in Open Zones (Relative to Control)” value (mouse Elevated Zero Maze; 60 mg/kg ip.) is reported as 140%.
For `CC1(C)C2CC[C@]1(C)C(=O)C(C(=O)Nc1ccc(F)c(Cl)c1)C2=O` (stereo partly drawn) [Example 10, (1S)-N-[3-chloro-4-fluorophenyl]-1,8,8-trimethyl-2,4-dioxobicyclo[3.2.1] octane-3-carboxamide], the melting point was 87 to 89 °C and the activation at 50 µM [1] was 137%.
Work on `CC1(C)C2CC[C@@]1(C)C(=O)C(C(=O)Nc1cc(C(F)(F)F)cc(C(F)(F)F)c1)C2=O` (stereo partly drawn) [Example 12, (1R)-N-[3,5-bis(trifluoromethyl)phenyl]-1,8,8-trimethyl-2,4-dioxobicyclo [3.2.1]octane-3-carboxamide] yielded a melting point of 68 to 71 °C and an activation at 50 µM [1] of 22%.
Molecule `CC1(C)C2CC[C@@]1(C)C(=O)C(C(=O)Nc1cc(Cl)cc(Cl)c1)C2=O` (stereo partly drawn) [Example 13, (1R)-N-(3,5-dichlorophenyl)-1,8,8-trimethyl-2,4-dioxobicyclo[3.2.1]octane-3-carboxamide] has a melting point of 115 to 117 °C and an activation at 50 µM [1] of 19%.
Molecule `CC1(C)C2CC[C@@]1(C)C(=O)C(C(=O)Nc1ccc([N+](=O)[O-])cc1)C2=O` (stereo partly drawn) [Example 15, (1R)-N-(4-nitrophenyl)-1,8,8-trimethyl-2,4-dioxobicyclo[3.2.1]octane-3-carboxamide] has a melting point of 168 to 170 °C and an activation at 50 µM [1] of 75%.
With `CC1(C)C2CC[C@@]1(C)C(=O)C(C(=O)Nc1ccc(Cl)c(C(F)(F)F)c1)C2=O` (stereo partly drawn) [Example 16, (1R)-N-[4-chloro-3-(trifluoromethyl)phenyl]-1,8,8-trimethyl-2,4-dioxobicyclo [3.2.1]octane-3-carboxamide] the melting point was 117 to 119 °C and the activation at 50 µM [1] was 45%.
`CC1(C)C2CC[C@@]1(C)C(=O)C(C(=O)Nc1ccc(C(F)(F)F)cc1)C2=O` (stereo partly drawn) [Example 18, (1R)-N-[4-(trifluoromethyl)phenyl]-1,8,8-trimethyl-2,4-dioxobicyclo[3.2.1] octane-3-carboxamide] showed a melting point of 78 to 81 °C and an activation at 50 µM [1] of 96%.
`CC1(C)C2CC[C@@]1(C)C(=O)C(C(=O)Nc1ccc(Cl)cc1)C2=O` (stereo partly drawn) [Example 19, (1R)-N-[4-chlorophenyl]-1,8,8-trimethyl-2,4-dioxobicyclo[3.2.1]octane-3-carboxamide] gave a melting point of 88 to 90 °C and an activation at 50 µM [1] of 14%.
For `CC1(C)C2CC[C@@]1(C)C(=O)C(C(=O)Nc1ccc(F)c(Cl)c1)C2=O` (stereo partly drawn) [Example 20, (1R)-N-[3-chloro-4-fluorophenyl]-1,8,8-trimethyl-2,4-dioxobicyclo[3.2.1] octane-3-carboxamide], the melting point was 89 to 91 °C and the activation at 50 µM [1] was 267%.
In the case of `CC1(C)C2CC[C@@]1(C)C(=O)C(C(=O)Nc1ccc(F)c(C(F)(F)F)c1)C2=O` (stereo partly drawn) [Example 21, (1R)-N-[3(trifluoromethyl)-4-fluorophenyl]-1,8,8-trimethyl-2,4-dioxobicyclo [3.2.1]octane-3-carboxamide], the melting point is reported as 96 to 98 °C and the activation at 50 µM [1] is reported as 229%.
`O=C(Nc1cccc(C(F)(F)F)c1)C1C(=O)C2CCC(C2)C1=O` (stereo not shown) [Example 22, N-[3-(trifluoromethyl)phenyl]-2,4-dioxobicyclo[3.2.1]octane-3-carboxamide] showed a melting point of 68 to 69 °C and an activation at 50 µM [1] of 41%.
`O=C(Nc1cc(C(F)(F)F)cc(C(F)(F)F)c1)C1C(=O)C2CCC(C2)C1=O` (stereo not shown) [Example 23, N-[3,5-bis(trifluoromethyl)phenyl]-2,4-dioxobicyclo[3.2.1]octane-3-carboxamide] gave a melting point of 88 to 90 °C and an activation at 50 µM [1] of 137%.
`O=C(Nc1ccc(Cl)c(C(F)(F)F)c1)C1C(=O)C2CCC(C2)C1=O` (stereo not shown) [Example 25, N-[4-chloro-3-(trifluoromethyl)phenyl]-2,4-dioxobicyclo[3.2.1]octane-3-carboxamide] showed a melting point of 136 to 137 °C and an activation at 50 µM [1] of 47%.
With `O=C(Nc1ccc(F)c(C(F)(F)F)c1)C1C(=O)C2CCC(C2)C1=O` (stereo not shown) [Example 27, N-[4-fluoro-3-(trifluoromethyl)phenyl]-2,4-dioxobicyclo[3.2.1]octane-3-carboxamide] the melting point was 97 to 100 °C and the activation at 50 µM [1] was 43%.
